Reference: patent US9701670B2, “Pyrazolyl-ureas as kinase inhibitors” (RESPIVERT LIMITED, priority 2013, dated 2017)

Assays:
[1] = system: Differentiated U937 cells; assay: (l) Cell viability: MTT assay; type: cell-based, human; conditions: 1 μg/mL
Experimental: Differentiated U937 cells are pre-incubated with each test compound (final concentration 1 μg/mL or 10 μg/mL in 200 μL media indicated below) under two protocols: the first for 4 hr in 5% FCS RPMI1640 media and the second in 10% FCS RPMI1640 media for 24 h. The supernatant is replaced with new media (200 μL) and MTT stock solution (10 μL, 5 mg/mL) is added to each well. After incubation for 1 hr the media are removed, DMSO (200 μL) is added to each well and the plates are shaken lightly for 1 hr prior to reading the absorbance at 550 nm. The percentage loss of cell viability is calculated for each well relative to vehicle (0.5% DMSO) treatment. Consequently an apparent increase in cell viability for drug treatment relative to vehicle is tabulated as a negative percentage.

[2] = molecular target: p38 MAPKα isoform (MAPK14) (Homo sapiens (Human), UniProt Q16539); assay: p38 MAPKα enzyme inhibition (FRET, Z-LYTE), Method 1; type: biochemical; conditions: Method 1 (Table 4a1)
Chain of p38 MAPKα isoform (MAPK14) (Q16539 whole entry, canonical isoform): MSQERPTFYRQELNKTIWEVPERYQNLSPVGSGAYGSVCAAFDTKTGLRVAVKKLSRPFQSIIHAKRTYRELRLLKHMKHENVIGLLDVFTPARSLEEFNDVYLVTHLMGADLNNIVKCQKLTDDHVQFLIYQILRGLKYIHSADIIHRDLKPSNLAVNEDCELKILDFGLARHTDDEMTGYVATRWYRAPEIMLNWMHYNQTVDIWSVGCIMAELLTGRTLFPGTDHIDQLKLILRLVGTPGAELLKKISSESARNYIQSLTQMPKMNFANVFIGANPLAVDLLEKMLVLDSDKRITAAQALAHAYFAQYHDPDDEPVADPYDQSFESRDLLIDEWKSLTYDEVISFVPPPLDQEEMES
Experimental: The enzyme inhibitory activities of compounds disclosed herein are determined by FRET using synthetic peptides labelled with both donor and acceptor fluorophores (Z-LYTE, Invitrogen Ltd., Paisley, UK).
The inhibitory activities of test compounds against the p38 MAPKα isoform (MAPK14: Invitrogen), are evaluated indirectly by determining the level of activation/phosphorylation of the down-stream molecule, MAPKAP-K2. The p38 MAPKα protein (80 ng/mL, 2.5 μL) is mixed with the test compound (2.5 μL of either 4 μg/mL, 0.4 μg/mL, 0.04 μg/mL or 0.004 μg/mL) for 2 hr at RT. […] The mixture is incubated for 1 hr at RT. Development reagent (protease, 5 μL) is added for 1 hr prior to detection in a fluorescence microplate reader (Varioskan® Flash, ThermoFisher Scientific).
In all cases, the site-specific protease cleaves non-phosphorylated peptide only and eliminates the FRET signal. Phosphorylation levels of each reaction are calculated using the ratio of coumarin emission (donor) over fluorescein emission (acceptor), for which high ratios indicate high phosphorylation and low ratios indicate low phosphorylation levels.

Structure (SMILES) | Cell viability at time point in d-U937 cells 4 h [1] | Cell viability at time point in d-U937 cells 24 h [1] | IC50 [2] [nM]
Cc1ccc(-n2nc(C(C)(C)C)cc2NC(=O)Nc2ccc(Oc3ccnc(Nc4cccc(C(=O)NCCN(C)C)c4)n3)c3ccccc23)cc1 [Example 18, 3-((4-((4-(3-(3-(tert-butyl)-1-(p-tolyl)-1H-pyrazol-5-yl)ureido)naphthalen-1-yl)oxy)pyrimidin-2-yl)amino)-N-(2-(dimethylamino)ethyl)benzamide] | −ve (−ve and +ve indicate that the value is below and above respectively, the no significant effect threshold, defined as 30% inhibition at 1 μg/mL at the time point indicated.) | −ve (−ve and +ve indicate that the value is below and above respectively, the no significant effect threshold, defined as 30% inhibition at 1 μg/mL at the time point indicated.) | 12
Cc1ccc(-n2nc(C(C)(C)C)cc2NC(=O)Nc2ccc(Oc3ccnc(Nc4cccc(C(=O)N(C)C)c4)n3)c3ccccc23)cc1 [Example 26, 3-((4-((4-(3-(3-(tert-butyl)-1-(p-tolyl)-1H-pyrazol-5-yl)ureido)naphthalen-1-yl)oxy)pyrimidin-2-yl)amino)-N,N-dimethylbenzamide] | −ve (−ve and +ve indicate that the value is below and above respectively, the no significant effect threshold, defined as 30% inhibition at 1 μg/mL at the time point indicated.) | −ve (−ve and +ve indicate that the value is below and above respectively, the no significant effect threshold, defined as 30% inhibition at 1 μg/mL at the time point indicated.) | 12
COc1ccc(C(=O)NCCN2CCOCC2)cc1Nc1nccc(Oc2ccc(NC(=O)Nc3cc(C(C)C)nn3-c3ccc(C)cc3)c3ccccc23)n1 [Example 30, 3-((4-((4-(3-(3-isopropyl-1-(p-tolyl)-1H-pyrazol-5-yl)ureido)naphthalen-1-yl)oxy)pyrimidin-2-yl)amino)-4-methoxy-N-(2-morpholinoethyl)benzamide] | −ve (−ve and +ve indicate that the value is below and above respectively, the no significant effect threshold, defined as 30% inhibition at 1 μg/mL at the time point indicated.) | −ve (−ve and +ve indicate that the value is below and above respectively, the no significant effect threshold, defined as 30% inhibition at 1 μg/mL at the time point indicated.) | 3
COc1ccc(C(=O)NCCN(C)C)cc1Nc1nccc(Oc2ccc(NC(=O)Nc3cc(C(C)C)nn3-c3ccc(C)cc3)c3ccccc23)n1 [Example 28, N-(2-(dimethylamino)ethyl)-3-((4-((4-(3-(3-isopropyl-1-(p-tolyl)-1H-pyrazol-5-yl)ureido)naphthalen-1-yl)oxy)pyrimidin-2-yl)amino)-4-methoxybenzamide] | −ve (−ve and +ve indicate that the value is below and above respectively, the no significant effect threshold, defined as 30% inhibition at 1 μg/mL at the time point indicated.) | −ve (−ve and +ve indicate that the value is below and above respectively, the no significant effect threshold, defined as 30% inhibition at 1 μg/mL at the time point indicated.) | < 1
Cc1ccc(-n2nc(C(C)C)cc2NC(=O)Nc2ccc(Oc3ccnc(Nc4cc(C(=O)NCCN5CCOCC5)cc(C(F)(F)F)c4)n3)c3ccccc23)cc1 [Example 7, 3-((4-((4-(3-(3-isopropyl-1-(p-tolyl)-1H-pyrazol-5-yl)ureido)naphthalen-1-yl)oxy)pyrimidin-2-yl)amino)-N-(2-morpholinoethyl)-5-(trifluoromethyl)benzamide] | −ve (−ve and +ve indicate that the value is below and above respectively, the no significant effect threshold, defined as 30% inhibition at 1 μg/mL at the time point indicated.) | −ve (−ve and +ve indicate that the value is below and above respectively, the no significant effect threshold, defined as 30% inhibition at 1 μg/mL at the time point indicated.) | –
COc1ccc(Nc2nccc(Oc3ccc(NC(=O)Nc4cc(C(C)(C)C)nn4-c4ccc(C)cc4)c4ccccc34)n2)cc1C(=O)NCCN1CCOCC1 [Example 13, 5-((4-((4-(3-(3-(tert-Butyl)-1-(p-tolyl)-1H-pyrazol-5-yl)ureido)naphthalen-1-yl)oxy)pyrimidin-2-yl)amino)-2-methoxy-N-(2-morpholinoethyl)benzamide] | −ve (−ve and +ve indicate that the value is below and above respectively, the no significant effect threshold, defined as 30% inhibition at 1 μg/mL at the time point indicated.) | −ve (−ve and +ve indicate that the value is below and above respectively, the no significant effect threshold, defined as 30% inhibition at 1 μg/mL at the time point indicated.) | –
COc1ccc(-n2nc(C(C)C)cc2NC(=O)Nc2ccc(Oc3ccnc(Nc4cc(C)cc(C(=O)NCCN5CCOCC5)c4)n3)c3ccccc23)cc1 [Example 45, 3-((4-((4-(3-(3-isopropyl-1-(4-methoxyphenyl)-1H-pyrazol-5-yl)ureido)naphthalen-1-yl)oxy)pyrimidin-2-yl)amino)-5-methyl-N-(2-morpholinoethyl)benzamide] | −ve (−ve and +ve indicate that the value is below and above respectively, the no significant effect threshold, defined as 30% inhibition at 1 μg/mL at the time point indicated.) | −ve (−ve and +ve indicate that the value is below and above respectively, the no significant effect threshold, defined as 30% inhibition at 1 μg/mL at the time point indicated.) | –
COc1cc(Nc2nccc(Oc3ccc(NC(=O)Nc4cc(C(C)(C)C)nn4-c4ccc(OC)nc4)c4ccccc34)n2)cc(C(=O)NCCN2CCOCC2)c1 [Example 57, 3-((4-((4-(3-(3-(tert-butyl)-1-(6-methoxypyridin-3-yl)-1H-pyrazol-5-yl)ureido)naphthalen-1-yl)oxy)pyrimidin-2-yl)amino)-5-methoxy-N-(2-morpholinoethyl)benzamide] | −ve (−ve and +ve indicate that the value is below and above respectively, the no significant effect threshold, defined as 30% inhibition at 1 μg/mL at the time point indicated.) | −ve (−ve and +ve indicate that the value is below and above respectively, the no significant effect threshold, defined as 30% inhibition at 1 μg/mL at the time point indicated.) | –
COc1ccc(-n2nc(C(C)(C)C)cc2NC(=O)Nc2ccc(Oc3cc(Nc4cc(OC)cc(C(=O)NCCN5CCOCC5)c4)ncn3)c(C)c2C)cc1 [Example 91, 3-((6-(4-(3-(3-(tert-Butyl)-1-(4-methoxyphenyl)-1H-pyrazol-5-yl)ureido)-2,3-dimethylphenoxy)pyrimidin-4-yl)amino)-5-methoxy-N-(2-morpholinoethyl)benzamide] | – | – | 9.6
COc1ccc(C(=O)NCCN(C)C)cc1Nc1nccc(Oc2ccc(NC(=O)Nc3cc(C(C)(C)C)nn3-c3ccc(C)cc3)c3ccccc23)n1 [Example 29, 3-((4-((4-(3-(3-(tert-butyl)-1-(p-tolyl)-1H-pyrazol-5-yl)ureido)naphthalen-1-yl)oxy)pyrimidin-2-yl)amino)-N-(2-(dimethylamino)ethyl)-4-methoxybenzamide] | −ve (−ve and +ve indicate that the value is below and above respectively, the no significant effect threshold, defined as 30% inhibition at 1 μg/mL at the time point indicated.) | −ve (−ve and +ve indicate that the value is below and above respectively, the no significant effect threshold, defined as 30% inhibition at 1 μg/mL at the time point indicated.) | –
Cc1ccc(-n2nc(C(C)C)cc2NC(=O)Nc2ccc(Oc3ccnc(Nc4cccc(C(=O)NCCN5CCOCC5)c4)n3)c3ccccc23)cc1 [Example 19, 3-((4-((4-(3-(3-isopropyl-1-(p-tolyl)-1H-pyrazol-5-yl)ureido)naphthalen-1-yl)oxy)pyrimidin-2-yl)amino)-N-(2-morpholinoethyl)benzamide] | −ve (−ve and +ve indicate that the value is below and above respectively, the no significant effect threshold, defined as 30% inhibition at 1 μg/mL at the time point indicated.) | −ve (−ve and +ve indicate that the value is below and above respectively, the no significant effect threshold, defined as 30% inhibition at 1 μg/mL at the time point indicated.) | –
COc1ccc(-n2nc(C(C)C)cc2NC(=O)Nc2ccc(Oc3ccnc(Nc4cc(OC)cc(C(=O)NCCN(C)C)c4)n3)c3ccccc23)cc1 [Example 6, N-(2-(Dimethylamino)ethyl)-3-((4-((4-(3-(3-isopropyl-1-(4-methoxyphenyl)-1H-pyrazol-5-yl)ureido)naphthalen-1-yl)oxy)pyrimidin-2-yl)amino)-5-methoxy benzamide] | −ve (−ve and +ve indicate that the value is below and above respectively, the no significant effect threshold, defined as 30% inhibition at 1 μg/mL at the time point indicated.) | −ve (−ve and +ve indicate that the value is below and above respectively, the no significant effect threshold, defined as 30% inhibition at 1 μg/mL at the time point indicated.) | –
